Reference: US20070155835A1, “USE OF ORTHO-PH[…]/OR DERIVATIVES THEREOF FOR INHIBITING THE ASEXUAL REPRODUCTION OF FUNGI” (Henkel Kommanditgesellschaft auf Aktien (Henkel KGaA), priority 2004, published 2007)

Columns and labels:
[1] = test system: Aspergillus niger (DSM1988); experiment: Sporulation of Aspergillus niger on wort agar plates containing active substance, assessed visually; format: cell-based
Protocol: (§1) The surfaces of wort agar plates were each contaminated with 100 μl of a germ suspension (10^3 CFU/ml) of Aspergillus niger (DSM1988). Different quantities of active substance (solutions in ethanol, see table for final concentrations) had previously been added to the agar plates. The plates were incubated for 3 days at 25° C. Sporulation was assessed visually, and the sporulation rate (in %) was determined.
as §1

[2] = test system: Aspergillus niger (DSM1988); experiment: Growth of the test strain on wort agar plates containing active substance; format: cell-based
Protocol: as §1, with “determined. […] A growth-inhibiting or germ-killing effect occurred only at a concentration of 0.05 wt % OPP.” for “determined.”
as §1

Q: With `CC(C)=CCCC(C)=CCCC(C)=CCO` [Farnesol, reference compound] as the molecule, how does the “Sporulation [%]” value ([1]; Farnesol concentration 25 μM, comparative experiment) read?
A: Its value is 90%.

Q: What about the “Sporulation [%]” value ([1]; Farnesol concentration 62.5 μM, comparative experiment) of the same molecule?
A: Its value is 75%.

Q: And the “Sporulation [%]” value ([1]; Farnesol concentration 125 μM, comparative experiment)?
A: Its value is 50%.

Q: What about the “Sporulation [%]” value ([1]; Farnesol concentration 250 μM, comparative experiment) of the same molecule?
A: The value was 10%.

Q: What about the “Sporulation [%]” value ([1]; Farnesol concentration 500 μM, comparative experiment) of the same molecule?
A: The value was 0%.

Q: With `Oc1ccccc1-c1ccccc1` [OPP, Ortho-Phenylphenol] as the molecule, how does the “Sporulation [%]” value ([1]; OPP concentration 0.00001 %, wort agar, 3 days at 25° C.) read?
A: Its value is 95%.

Q: And the “Sporulation [%]” value ([1]; OPP concentration 0.00005 %, wort agar, 3 days at 25° C.)?
A: The value was 95%.

Q: What about the “Sporulation [%]” value ([1]; OPP concentration 0.0001 %, wort agar, 3 days at 25° C.) of the same molecule?
A: Its value is 85%.

Q: And the “Sporulation [%]” value ([1]; OPP concentration 0.0005 %, wort agar, 3 days at 25° C.)?
A: The value was 10%.

Q: And the “Sporulation [%]” value ([1]; OPP concentration 0.001 %, wort agar, 3 days at 25° C.)?
A: Its value is 0%.

Q: What about the “Sporulation [%]” value ([1]; OPP concentration 0.005 %, wort agar, 3 days at 25° C.) of the same molecule?
A: The value was 0%.

Q: And the “Sporulation [%]” value ([1]; OPP concentration 0.05 %, wort agar, 3 days at 25° C.)?
A: The value was “no growth”.

Q: And the “Sporulation [%]” value ([1]; OPP concentration 0.1 %, wort agar, 3 days at 25° C.)?
A: The value was “no growth”.

Q: What about the “Sporulation [%]” value ([1]; OPP concentration 1.0 %, wort agar, 3 days at 25° C.) of the same molecule?
A: The value was “no growth”.

Q: And the “Concentration completely suppressing sporulation relative to growth-inhibiting or germ-killing concentration” value ([1]; no growth-inhibiting effect at that concentration)?
A: Its value is “fifty times lower”.

Q: What about the “Utilization concentration at which sporulation was completely suppressed” value ([1]; wort agar, 3 days at 25° C.) of the same molecule?
A: The value was 0.001 wt %.

Q: And the “Concentration at which a growth-inhibiting or germ-killing effect occurred” value ([2]; wort agar, 3 days at 25° C.)?
A: The value was 0.05 wt %.

Q: With “Ortho-Phenylphenol/Silicic Acid Ester [OPP/SAE]” as the molecule, how does the “Sporulation [%]” value ([1]; OPP/SEA concentration 0.00001 %, wort agar, 3 days at 25° C.) read?
A: Its value is 95%.

Q: What about the “Sporulation [%]” value ([1]; OPP/SEA concentration 0.00005 %, wort agar, 3 days at 25° C.) of the same molecule?
A: Its value is 95%.

Q: And the “Sporulation [%]” value ([1]; OPP/SEA concentration 0.0001 %, wort agar, 3 days at 25° C.)?
A: The value was 95%.

Q: And the “Sporulation [%]” value ([1]; OPP/SEA concentration 0.0005 %, wort agar, 3 days at 25° C.)?
A: Its value is 50%.

Q: What about the “Sporulation [%]” value ([1]; OPP/SEA concentration 0.001 %, wort agar, 3 days at 25° C.) of the same molecule?
A: Its value is 25%.

Q: And the “Sporulation [%]” value ([1]; OPP/SEA concentration 0.005 %, wort agar, 3 days at 25° C.)?
A: The value was 0%.

Q: What about the “Sporulation [%]” value ([1]; OPP/SEA concentration 0.01 %, wort agar, 3 days at 25° C.) of the same molecule?
A: The value was 0%.

Q: What about the “Utilization concentration at which sporulation was completely suppressed” value ([1]; wort agar, 3 days at 25° C.) of the same molecule?
A: The value was 0.005 wt %.

Q: And the “Effect of the concentrations used on growth of the test strain” value ([2]; concentrations of the tables, unless otherwise indicated in the tables)?
A: The value was “did not prevent growth of the test strain”.
